Test results: patent US9751890B2, “Heteroaryl derivatives as CFTR modulators” (Vertex Pharmaceuticals Incorporated, priority 2008, dated 2017)

Biological target: T1, ΔF508-CFTR (Homo sapiens, UniProt P13569, DEL508-508)
T1 construct: expressed in transfected cells
Assay: Membrane potential optical assay for ΔF508-CFTR correction (single-addition HTS format)
Type: cell-based
Conditions: NIH3T3 mouse fibroblasts stably expressing ΔF508-CFTR; 16-24 hrs with compound; activation with 10 μM forskolin and 20 μM genistein; read-out: BinnedMaxEfficacy (PercentActivity)
Description: Membrane potential optical methods for assaying ΔF508-CFTR modulation properties of compounds.
The assay utilizes fluorescent voltage sensing dyes to measure changes in membrane potential using a fluorescent plate reader (e.g., FLIPR III, Molecular Devices, Inc.) as a readout for increase in functional ΔF508-CFTR in NIH 3T3 cells. The driving force for the response is the creation of a chloride ion gradient in conjunction with channel activation by a single liquid addition step after the cells have previously been treated with compounds and subsequently loaded with a voltage sensing dye.
To identify small molecules that correct the trafficking defect associated with ΔF508-CFTR; a single-addition HTS assay format was developed. Assay Plates containing cells are incubated for ˜2-4 hours in tissue culture incubator at 37° C., 5% CO2, 90% humidity. Cells are then ready for compound exposure after adhering to the bottom of the assay plates.
The cells were incubated in serum-free medium for 16-24 hrs in tissue culture incubator at 37° C., 5% CO2, 90% humidity in the presence or absence (negative control) of test compound. The cells were subsequently rinsed 3× with Krebs Ringers solution and loaded with a voltage sensing redistribution dye. To activate ΔF508-CFTR, 10 μM forskolin and the CFTR potentiator, genistein (20 μM), were added along with Cl^−-free medium to each well. The addition of Cl^−-free medium promoted Cl^− efflux in response to ΔF508-CFTR activation and the resulting membrane depolarization was optically monitored using voltage sensor dyes.
Bath Solution #1: (in mM) NaCl 160, KCl 4.5, CaCl2 2, MgCl2 1, HEPES 10, pH 7.4 with NaOH.
Chloride-free bath solution: Chloride salts in Bath Solution #1 are substituted with gluconate salts.
NIH3T3 mouse fibroblasts stably expressing ΔF508-CFTR are used for optical measurements of membrane potential. The cells are maintained at 37° C. in 5% CO2 and 90% humidity in Dulbecco's modified Eagle's medium supplemented with 2 mM glutamine, 10% fetal bovine serum, 1×NEAA, β-ME, 1× pen/strep, and 25 mM HEPES in 175 cm^2 culture flasks. For all optical assays, the cells were seeded at ˜20,000/well in 384-well matrigel-coated plates and cultured for 2 hrs at 37° C. before culturing at 27° C. for 24 hrs. for the potentiator assay. For the correction assays, the cells are cultured at 27° C. or 37° C. with and without compounds for 16-24 hours.

T1 sequence (P13569 with tags, fused parts or gaps DEL508-508): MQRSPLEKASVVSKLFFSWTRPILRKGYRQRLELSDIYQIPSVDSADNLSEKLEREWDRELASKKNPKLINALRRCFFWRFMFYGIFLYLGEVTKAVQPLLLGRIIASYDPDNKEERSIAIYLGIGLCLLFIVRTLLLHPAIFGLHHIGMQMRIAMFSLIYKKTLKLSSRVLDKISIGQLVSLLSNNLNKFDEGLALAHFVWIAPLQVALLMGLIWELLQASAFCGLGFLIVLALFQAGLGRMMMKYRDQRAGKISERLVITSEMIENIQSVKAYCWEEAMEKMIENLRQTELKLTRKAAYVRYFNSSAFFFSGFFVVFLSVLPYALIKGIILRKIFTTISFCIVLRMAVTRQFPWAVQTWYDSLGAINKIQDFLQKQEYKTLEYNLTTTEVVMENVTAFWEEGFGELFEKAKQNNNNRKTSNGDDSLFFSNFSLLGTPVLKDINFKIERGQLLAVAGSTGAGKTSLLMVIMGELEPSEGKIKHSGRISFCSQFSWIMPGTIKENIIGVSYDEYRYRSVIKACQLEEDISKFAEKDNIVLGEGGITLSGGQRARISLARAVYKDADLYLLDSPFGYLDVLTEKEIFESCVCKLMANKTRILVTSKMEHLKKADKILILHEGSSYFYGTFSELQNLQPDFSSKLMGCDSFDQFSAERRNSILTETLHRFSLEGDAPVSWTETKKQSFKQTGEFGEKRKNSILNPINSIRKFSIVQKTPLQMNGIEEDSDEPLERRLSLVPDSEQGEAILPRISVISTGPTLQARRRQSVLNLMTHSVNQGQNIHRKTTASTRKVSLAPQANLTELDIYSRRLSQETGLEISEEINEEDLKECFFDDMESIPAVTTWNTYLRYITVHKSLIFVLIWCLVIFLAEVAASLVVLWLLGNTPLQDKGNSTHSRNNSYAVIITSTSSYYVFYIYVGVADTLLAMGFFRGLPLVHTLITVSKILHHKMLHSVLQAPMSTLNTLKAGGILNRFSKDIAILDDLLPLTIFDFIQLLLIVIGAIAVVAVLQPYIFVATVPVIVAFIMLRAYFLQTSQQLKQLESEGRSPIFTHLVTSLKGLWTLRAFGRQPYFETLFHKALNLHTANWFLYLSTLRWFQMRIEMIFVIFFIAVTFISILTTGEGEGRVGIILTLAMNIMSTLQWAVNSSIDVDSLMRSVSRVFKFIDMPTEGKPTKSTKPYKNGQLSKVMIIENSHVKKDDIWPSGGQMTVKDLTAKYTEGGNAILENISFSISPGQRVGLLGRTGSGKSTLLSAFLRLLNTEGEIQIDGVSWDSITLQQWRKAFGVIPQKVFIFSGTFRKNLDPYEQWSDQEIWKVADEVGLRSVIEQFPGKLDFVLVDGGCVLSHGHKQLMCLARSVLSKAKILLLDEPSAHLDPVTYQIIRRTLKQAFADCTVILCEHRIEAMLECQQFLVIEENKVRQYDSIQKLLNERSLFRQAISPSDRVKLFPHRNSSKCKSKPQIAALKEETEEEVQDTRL

Structure (SMILES) | Emax [%]
COc1ccccc1Cc1ccc(NC(=O)C2(c3ccc4c(c3)OCO4)CC2)cn1 [Compound 3] | > 100
Cc1c(NC(=O)C2(c3ccc4c(c3)OC(F)(F)O4)CC2)ccnc1-c1cccc(C(=O)O)c1 [Compound 9] | 25 to 100
Cc1cnc(NC(=O)C2(c3ccc4c(c3)OC(F)(F)O4)CC2)nc1-c1ccc(=O)[nH]c1 [Compound 28, 1-(2,2-difluorobenzo[d][1,3]dioxol-5-yl)-N-(5-methyl-4-(6-oxo-1,6-dihydropyridin-3-yl)pyrimidin-2-yl)cyclopropanecarboxamide] | 25 to 100
Cc1ncc(NC(=O)C2(c3ccc4c(c3)OCO4)CC2)cc1-c1ccc(S(=O)(=O)N(C)C)cc1 [Compound 8] | > 100
O=C(Nc1ccc(Cc2ccccc2)nc1)C1(c2ccc3c(c2)OCO3)CC1 [Compound 19, 1-(benzo[d][1,3]dioxol-5-yl)-N-(6-benzylpyridin-3-yl)cyclopropanecarboxamide] | > 100
O=C(Nc1ncc2c(n1)-c1ccoc1CC2)C1(c2ccc3c(c2)OCO3)CC1 [Compound 23, 1-(benzo[d][1,3]dioxol-5-yl)-N-(5,6-dihydrofuro[2,3-h]quinazolin-2-yl)cyclopropanecarboxamide] | 25 to 100
CNC(=O)c1ccc(-c2cc(NC(=O)C3(c4ccc5c(c4)OCO5)CC3)cnc2C)cc1 [Compound 16, 4-(5-(1-(benzo[d][1,3]dioxol-5-yl)cyclopropanecarboxamido)-2-methylpyridin-3-yl)-N-methylbenzamide] | 25 to 100
COc1cc(NC(=O)C2(c3ccc4c(c3)OCO4)CC2)nc(OC)n1 [Compound 22, 1-(benzo[d][1,3]dioxol-5-yl)-N-(2,6-dimethoxypyrimidin-4-yl)cyclopropanecarboxamide] | > 100
Cc1ncc(NC(=O)C2(c3ccc4c(c3)OCO4)CC2)cc1-c1cccc(S(N)(=O)=O)c1 [Compound 20, 1-(benzo[d][1,3]dioxol-5-yl)-N-(6-methyl-5-(3-sulfamoylphenyl)pyridin-3-yl)cyclopropanecarboxamide] | 25 to 100
COc1ccc(-c2nc(NC(=O)C3(c4ccc5c(c4)OC(F)(F)O5)CC3)ncc2C)cn1 [Compound 10, 1-(2,2-difluorobenzo[d][1,3]dioxol-5-yl)-N-(4-(6-methoxypyridin-3-yl)-5-methylpyrimidin-2-yl)cyclopropanecarboxamide] | 25 to 100
Cc1ncc(NC(=O)C2(c3ccc4c(c3)OCO4)CC2)cc1-c1cccc(S(=O)(=O)N(C)C)c1 [Compound 6] | 25 to 100
COc1ccc(C2(C(=O)Nc3cnccn3)CC2)cc1 [Compound 21] | 25 to 100
O=C(Nc1cnc(Cc2ccccc2Cl)cn1)C1(c2ccc3c(c2)OCO3)CC1 [Compound 1, 1-(benzo[d][1,3]dioxol-5-yl)-N-(5-(2-chlorobenzyl)pyrazin-2-yl)cyclopropanecarboxamide] | > 100
COc1ccccc1Cc1ccc(NC(=O)C2(c3ccc4c(c3)OCO4)CC2)nn1 [Compound 4] | > 100
Cc1ncc(NC(=O)C2(c3ccc4c(c3)OCO4)CC2)cc1-c1cccc(C(N)=O)c1 [Compound 17] | 25 to 100
O=C(Nc1cncc(Cc2ccccc2)n1)C1(c2ccc3c(c2)OCO3)CC1 [Compound 27, 1-(benzo[d][1,3]dioxol-5-yl)-N-(6-benzylpyrazin-2-yl)cyclopropanecarboxamide] | > 100
Cc1ccnc(NC(=O)C2(c3ccc4c(c3)OCO4)CC2)n1 [Compound 25, 1-(benzo[d][1,3]dioxol-5-yl)-N-(4-methylpyrimidin-2-yl)cyclopropanecarboxamide] | 25 to 100
Cc1cccc(Oc2ccc(NC(=O)C3(c4ccc5c(c4)OCO5)CC3)cn2)c1C [Compound 26, 1-(benzo[d][1,3]dioxol-5-yl)-N-(6-(2,3-dimethylphenoxy)pyridin-3-yl)cyclopropanecarboxamide] | 25 to 100
Cc1ncc(NC(=O)C2(c3ccc4c(c3)OCO4)CC2)cc1-c1ccc(CO)cc1 [Compound 29] | 25 to 100
CNS(=O)(=O)c1ccc(-c2cc(NC(=O)C3(c4ccc5c(c4)OCO5)CC3)cnc2C)cc1 [Compound 30, 1-(benzo[d][1,3]dioxol-5-yl)-N-(6-methyl-5-(4-(N-methylsulfamoyl)phenyl)pyridin-3-yl)cyclopropanecarboxamide] | > 100
CC(Oc1ccc(Cl)cc1)c1ccnc(NC(=O)C2(c3ccc4c(c3)OCO4)CC2)n1 (centres unmarked) [Compound 14, 1-(benzo[d][1,3]dioxol-5-yl)-N-(4-(1-(4-chlorophenoxy)ethyl)pyrimidin-2-yl)cyclopropanecarboxamide] | > 100
COc1ccccc1-c1ccc(NC(=O)C2(c3ccc4c(c3)OCO4)CC2)cn1 [Compound 24, 1-(benzo[d][1,3]dioxol-5-yl)-N-(6-(2-methoxyphenyl)pyridin-3-yl)cyclopropanecarboxamide] | > 100
O=C(Nc1cncc(Cc2ccccc2Cl)n1)C1(c2ccc3c(c2)OCO3)CC1 [Compound 13] | > 100
O=C(Nc1ccc(-c2ccccc2)nc1)C1(c2ccc3c(c2)OCO3)CC1 [Compound 32, 1-(benzo[d][1,3]dioxol-5-yl)-N-(6-phenylpyridin-3-yl)cyclopropanecarboxamide] | > 100
O=C(Nc1cnc(Cc2ccccc2)cn1)C1(c2ccc3c(c2)OCO3)CC1 [Compound 12] | > 100
N#Cc1ccc(NC(=O)C2(c3ccc4c(c3)OCO4)CC2)cn1 [Compound 15, 1-(benzo[d][1,3]dioxol-5-yl)-N-(6-cyanopyridin-3-yl)cyclopropanecarboxamide] | 25 to 100
O=C(Nc1ccc(-c2ccccc2Cl)nc1)C1(c2ccc3c(c2)OCO3)CC1 [Compound 7, 1-(benzo[d][1,3]dioxol-5-yl)-N-(6-(2-chlorophenyl)pyridin-3-yl)cyclopropanecarboxamide] | > 100
Cc1cnc(NC(=O)C2(c3ccc4c(c3)OC(F)(F)O4)CC2)nc1-c1ccc(C(=O)O)cc1 [Compound 11, 4-(2-(1-(2,2-difluorobenzo[d][1,3]dioxol-5-yl)cyclopropanecarboxamido)-5-methylpyrimidin-4-yl)benzoic acid] | 25 to 100

Results, then the molecule that gave them:

Emax [%] | Structure (SMILES)
25 to 100 | O=C(Nc1ccc(Cc2ccccc2)nn1)C1(c2ccc3c(c2)OCO3)CC1 [Compound 44]
> 100 | COc1ccccc1Nc1ccc(NC(=O)C2(c3ccc4c(c3)OCO4)CC2)cn1 [Compound 43, 1-(benzo[d][1,3]dioxol-5-yl)-N-(6-(2-methoxyphenylamino)pyridin-3-yl)cyclopropanecarboxamide]
> 100 | O=C(Nc1ccnc(Cc2ccccc2)c1)C1(c2ccc3c(c2)OCO3)CC1 [Compound 36, 1-(benzo[d][1,3]dioxol-5-yl)-N-(2-benzylpyridin-4-yl)cyclopropanecarboxamide]
25 to 100 | Cc1cnc(NC(=O)C2(c3ccc4c(c3)OC(F)(F)O4)CC2)nc1-c1cccc(C(=O)O)c1 [Compound 45, 3-(2-(1-(2,2-difluorobenzo[d][1,3]dioxol-5-yl)cyclopropanecarboxamido)-5-methylpyrimidin-4-yl)benzoic acid]
> 100 | COc1ccccc1Cc1cncc(NC(=O)C2(c3ccc4c(c3)OCO4)CC2)n1 [Compound 33]
25 to 100 | COc1ccccc1Cc1cnc(NC(=O)C2(c3ccc4c(c3)OCO4)CC2)cn1 [Compound 34]
25 to 100 | Cc1cc(O)nc(NC(=O)C2(c3ccc4c(c3)OCO4)CC2)n1 [Compound 35, 1-(benzo[d][1,3]dioxol-5-yl)-N-(4-hydroxy-6-methylpyrimidin-2-yl)cyclopropanecarboxamide]
> 100 | O=C(Nc1ccc(Cc2ccccc2Cl)nc1)C1(c2ccc3c(c2)OCO3)CC1 [Compound 37, 1-(benzo[d][1,3]dioxol-5-yl)-N-(6-(2-chlorobenzyl)pyridin-3-yl)cyclopropanecarboxamide]
> 100 | Cc1ncc(NC(=O)C2(c3ccc4c(c3)OCO4)CC2)cc1-c1cccc(CO)c1 [Compound 40]
25 to 100 | Cc1ncc(NC(=O)C2(c3ccc4c(c3)OCO4)CC2)cc1-c1ccc(C(N)=O)cc1 [Compound 39]
25 to 100 | O=C(N(c1ccnc(C(F)(F)F)c1)c1ccccn1)C1(c2ccc3c(c2)OCO3)CC1 [Compound 41, 1-(benzo[d][1,3]dioxol-5-yl)-N-(pyridin-2-yl)-N-(2-(trifluoromethyl)pyridin-4-yl)cyclopropanecarboxamide]
> 100 | COc1ccccc1Cc1cc(NC(=O)C2(c3ccc4c(c3)OCO4)CC2)ccn1 [Compound 47]
25 to 100 | O=C(Nc1ccc(Cc2ccccc2Cl)nn1)C1(c2ccc3c(c2)OCO3)CC1 [Compound 46]
